A value given as a limit tells only on which side of the number the result lay.

For this assay, the target named is T1, WT/R232 STING protein (Homo sapiens, UniProt Q86WV6, H232R).
T1 construct: host or cells: HEK293T
T1 sequence (Q86WV6 whole entry H232R): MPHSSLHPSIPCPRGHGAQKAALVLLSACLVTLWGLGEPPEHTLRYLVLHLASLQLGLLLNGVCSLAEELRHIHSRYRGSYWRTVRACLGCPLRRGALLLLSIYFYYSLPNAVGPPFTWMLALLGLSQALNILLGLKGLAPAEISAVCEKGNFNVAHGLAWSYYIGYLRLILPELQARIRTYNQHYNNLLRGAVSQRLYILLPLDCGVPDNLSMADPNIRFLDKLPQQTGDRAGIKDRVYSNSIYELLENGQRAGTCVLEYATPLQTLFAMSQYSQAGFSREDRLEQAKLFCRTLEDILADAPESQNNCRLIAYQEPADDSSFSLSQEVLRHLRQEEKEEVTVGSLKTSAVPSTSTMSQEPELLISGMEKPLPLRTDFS
The experiment in a line: Luciferase reporter assay in HEK293T-hSTING-Luciferase cells (R232). It is filed as cell-based. The conditions noted are these: 20 hr stimulation, EC50 range. From the text:
• a) Stable STING expressing cells—Stable HEK293T STING-expressing cell lines were generated using plasmids purchased from Invivogen, CA, USA, that contain STING cDNA cloned into the pUNO-1 vector under hEF1-HTLV promoter and containing the Blasticidin selection cassette. The plasmids hSTING (R232), hSTING (H232), hSTING (HAQ) were directly procured from Invivogen while hSTING (AQ) and hSTING (Q) were derived from hSTING (HAQ) and hSTING (R232) plasmids respectively by using a PCR based site directed mutagenesis method. These vectors were individually transfected into HEK293T cells using Lipofectamine (Invitrogen) and transfected cells were selected under Blasticidin selection. These transfected cells were further subjected to clonal selection using the limiting dilution method to obtain clonally pure populations of HEK cells transfected with each of the above mentioned human STING variants. Only those clones were selected in which ligand independent activation of STING was minimal. • b) Stable Luciferase reporter gene expressing cells—Stable HEK293T Luciferase reporter gene expressing cell lines were generated using pCDNA4 plasmids under an IRF-inducible promoter. This promoter is comprised of five tandem interferon-stimulated response elements (ISRE) fused to an ISG54 minimal promoter. This vector was transfected into HEK293T cells using Lipofectamine (Invitrogen) and transfected cells were selected under Zeocin selection. These transfected cells were further subjected to clonal selection using the limiting dilution method to obtain clonally pure populations of HEK cells transfected the Luciferase reporter construct. Only those clones were selected in which ligand independent induction of luciferase was minimal.
5×10^5 clonally selected HEK293T-hSTING-Luciferase cells were seeded in 384-well plates in growth medium and stimulated with novel compounds. After 20 hr of stimulation supernatant were removed and secretary reporter gene activity were measured using the Quanti-Luc detection system (Invivogen) on a Spectramax i3X luminometer.
All compounds were first tested in a primary screen using WT/R232 STING protein to obtain a ‘fold-induction’ over baseline levels of protein activity.
Compound `CC1(C)C(=O)N(Cc2ccc(C(N)=O)cc2)c2cc(C(=O)NCc3c(F)cc(F)cc3F)ccc21` [Example 120, 1-(4-carbamoylbenzyl)-3,3-dimethyl-2-oxo-N-(2,4,6-trifluorobenzyl)indoline-6-carboxamide] came in with an EC50 of more than 10 µM.

Consider `CC1(C)C(=O)N(Cc2ccc(C(N)=O)cc2F)c2cc(C(=O)NCc3c(F)cc(F)cc3F)ccc21` [Example 121, 1-(4-carbamoyl-2-fluorobenzyl)-3,3-dimethyl-2-oxo-N-(2,4,6-trifluorobenzyl)indoline-6-carboxamide], for which the EC50 lay within 1 to 10 µM. `Cc1ccc(CNC(=O)c2ccc3c(c2)N(Cc2ccc(F)c(F)c2)C(=O)C3(C)C)o1` [Example 122, 1-(3,4-difluorobenzyl)-3,3-dimethyl-N-((5-methylfuran-2-yl)methyl)-2-oxoindoline-6-carboxamide]: the concentration for a half-maximal effect (EC50) lay within 1 to 10 µM. With `Cc1ccc(CNC(=O)c2ccc3c(c2)N(C(C)c2ccc(F)cc2)C(=O)C3(C)C)o1` (centres unmarked) [Example 123, 1-(1-(4-fluorophenyl)ethyl)-3,3-dimethyl-N-((5-methylfuran-2-yl)methyl)-2-oxoindoline-6-carboxamide], the concentration for a half-maximal effect (EC50) fell in the range of 1 to 10 µM. The same measure for `Cc1ccc(CN2C(=O)C(C)(C)c3ccc(C(=O)NCc4cc(F)cc(F)c4)cc32)o1` [Example 125, N-(3,5-difluorobenzyl)-3,3-dimethyl-1-((5-methylfuran-2-yl)methyl)-2-oxoindoline-6-carboxamide]: more than 10 µM; for `Cc1cnc(CNC(=O)c2ccc3c(c2)N(Cc2c(F)cccc2Cl)C(=O)C3(C)C)o1` [Example 126, 1-(2-chloro-6-fluorobenzyl)-3,3-dimethyl-N-((5-methyloxazol-2-yl)methyl)-2-oxoindoline-6-carboxamide]: 1 to 10 µM. The compound `Cn1cccc1CNC(=O)c1ccc2c(c1)N(Cc1c(F)cccc1Cl)C(=O)C2(C)C` [Example 127, 1-(2-chloro-6-fluorobenzyl)-3,3-dimethyl-N-((1-methyl-1H-pyrrol-2-yl)methyl)-2-oxoindoline-6-carboxamide] yielded a concentration giving a half-maximal response (EC50) of more than 10 µM. The same measure for `Cc1ncc(CN2C(=O)C(C)(C)c3ccc(C(=O)NCc4c(F)cc(F)cc4F)cc32)o1` [Example 128, 3,3-dimethyl-1-((2-methyloxazol-5-yl)methyl)-2-oxo-N-(2,4,6-trifluorobenzyl)indoline-6-carboxamide]: more than 10 µM.

Regarding `Cc1ccc(-c2nc(CN3C(=O)C(C)(C)c4ccc(C(=O)NCc5c(F)cc(F)cc5F)cc43)c(C)o2)cc1` [Example 129, 3,3-dimethyl-1-((5-methyl-2-(p-tolyl)oxazol-4-yl)methyl)-2-oxo-N-(2,4,6-trifluorobenzyl)indoline-6-carboxamide], the EC50 is more than 10 µM. Consider `CC1(C)C(=O)N(Cc2cc3ccccc3o2)c2cc(C(=O)NCc3c(F)cc(F)cc3F)ccc21` [Example 131, 1-(benzofuran-2-ylmethyl)-3,3-dimethyl-2-oxo-N-(2,4,6-trifluorobenzyl)indoline-6-carboxamide], for which the concentration for a half-maximal effect (EC50) was more than 10 µM. `CC1(C)CN(C(=O)c2c(F)cccc2Cl)c2cc(C(=O)NCc3ccco3)ccc21` [Example 132, 1-(2-chloro-6-fluorobenzoyl)-N-(furan-2-ylmethyl)-3,3-dimethylindoline-6-carboxamide] showed a half-maximal effective concentration (EC50) of more than 10 µM. On to `O=C(NCc1ccco1)c1ccc2c(c1)N(Cc1ccccc1F)C(=O)C2(F)F` [Example 133, 3.3-Difluoro-1-(2-fluorobenzyl)-N-(furan-2-ylmethyl)-2-oxoindoline-6-carboxamide], for which the EC50 is more than 10 µM. In turn, `CC1(C)c2ccc(C(=O)NCc3c(F)cc(F)cc3F)cc2N(Cc2c(F)cccc2Cl)S1(=O)=O` [Example 134, 1-(2-Chloro-6-fluorobenzyl)-3,3-dimethyl-N-(2,4,6-trifluorobenzyl)-1,3-dihydrobenzo[c]isothiazole-6-carboxamide 2,2-dioxide] registered a half-maximal effective concentration (EC50) of more than 10 µM. Regarding `O=C(NCc1ccco1)c1ccc2c(c1)N(C(=O)c1c(F)cccc1Cl)CC2` [Example 135, 1-(2-chloro-6-fluorobenzoyl)-N-(furan-2-ylmethyl)indoline-6-carboxamide], the half-maximal effective concentration (EC50) is more than 10 µM.

(Values after patent US20200172483A1, “HETEROCYCLIC SMALL MOLECULE MODULATORS OF HUMAN STING” (Curadev Pharma Limited, priority 2017, published 2020).)
